“And” between values parts separate entries of the source, which are not always exact repeats. Equal entries are not always repeated.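 These data come from cells grown in 96-well plates and exposed to compound for 48 hours at five concentrations. GI50 = concentration required for 50% inhibition of growth. TGI marks complete inhibition of growth.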

The results in this text go back to PubChem BioAssay (NCI).

Among the test systems are SK-OV-3 ovarian; MCF7 breast; HCT-116 colon; UACC-257 melanoma; PC-3 prostate; HOP-92 NSCLC; K-562 leukemia; HCT-15 colon; KM12 colon; MDA-MB-231 breast.
Common to all, as to experiment: inhibition of tumour cell growth, NCI panel, 48 h

With `O=c1cccc(C#CCCCCOC2CCCO2)o1` (stereo not drawn), the GI50 in the test on SK-OV-3 ovarian is over 30.4 µM; in the test on MCF7 breast, 8.73 µM; with HCT-116 colon, 6.39 µM; in the test on UACC-257 melanoma it was 9.49 µM; with PC-3 prostate, 6.73 µM; in the test on HOP-92 NSCLC it was 2.17 µM. Besides, the GI50 in the test on K-562 leukemia is 52.3 µM; in the test with HCT-15 colon, 19.5 µM; with KM12 colon it was 20.4 µM; with MDA-MB-231 breast it was 15.4 µM. Besides, the TGI in the test with SK-OV-3 ovarian is over 54.1 µM; in the test on MCF7 breast, over 100 µM; with HCT-116 colon, over 23.2 µM; in the test on UACC-257 melanoma, over 20.2 µM; in the test with PC-3 prostate, over 54.6 µM; with HOP-92 NSCLC, 11.5 µM. The TGI in the test on K-562 leukemia is over 100 µM; in the test with HCT-15 colon, 61.4 µM; in the test with KM12 colon, over 45.8 µM; in the test with MDA-MB-231 breast, 51.5 µM.
As to `c1ccc(-c2cc(-c3cc(-c4ccccn4)[nH]n3)n[nH]2)nc1`, the TGI in the test on SK-OV-3 ovarian, with MCF7 breast, in the test on HCT-116 colon, in the test on UACC-257 melanoma, in the test with PC-3 prostate and with HOP-92 NSCLC was over 100 µM in each case. For the same molecule, the TGI with K-562 leukemia, in the test on HCT-15 colon, in the test with KM12 colon and in the test on MDA-MB-231 breast was over 100 µM throughout.
For the molecule `CC(=O)N1c2ccccc2C23CCN4CC5=CCOC(O)C(C5CC42)C13` (stereo not drawn), the TGI in the test on SK-OV-3 ovarian, with MCF7 breast, with HCT-116 colon, in the test with UACC-257 melanoma, in the test on PC-3 prostate and in the test on HOP-92 NSCLC was over 100 µM each time. The TGI in the test on K-562 leukemia, in the test on HCT-15 colon, with KM12 colon and with MDA-MB-231 breast was over 100 µM throughout.
On to `CC/C(=C(\c1ccc(O)cc1)c1ccc(OCCNC)cc1)c1ccccc1`, for which the GI50 with SK-OV-3 ovarian was 5.14 µM and 3.69 µM and 2.08 µM; with MCF7 breast, 0.788 µM and 0.427 µM; with HCT-116 colon, 1.61 µM and 1.54 µM and 1.73 µM; with UACC-257 melanoma it was 1.93 µM and 1.64 µM and 1.7 µM; in the test with PC-3 prostate it was 1.84 µM and 1.77 µM and 2.25 µM; in the test on K-562 leukemia, 2 µM and 1.74 µM and 2.11 µM. In addition, the GI50 with HCT-15 colon was 1.8 µM and 1.56 µM; with KM12 colon, 1.7 µM and 1.64 µM and 1.81 µM; with MDA-MB-231 breast it was 1.89 µM and 1.65 µM and 1.61 µM. The TGI is 13.6 µM and 9.3 µM and 5.09 µM in the test with SK-OV-3 ovarian; 2.84 µM and 2.83 µM and 2.81 µM with MCF7 breast; 2.98 µM and 2.95 µM and 3.22 µM in the test on HCT-116 colon; 3.82 µM and 3.35 µM and 3.28 µM in the test on UACC-257 melanoma; 5.92 µM and 4.85 µM and 5.53 µM in the test with PC-3 prostate; 2.04 µM and 2.96 µM and 7.46 µM in the test on HOP-92 NSCLC. Moreover, the TGI is 4.88 µM and 3.89 µM and 5.66 µM in the test with K-562 leukemia; 3.92 µM and 3.2 µM and 3.71 µM in the test with HCT-15 colon; 3.15 µM and 3.14 µM and 3.49 µM in the test with KM12 colon; 4.31 µM and 3.52 µM and 3.22 µM with MDA-MB-231 breast.
Regarding `Nc1ccc(-c2ccc(-c3nc4ccccc4[nH]3)cc2)cc1`, the GI50 is 46 µM with SK-OV-3 ovarian; 0.765 µM in the test on MCF7 breast; 2.45 µM in the test with HCT-116 colon; 1.11 µM in the test on UACC-257 melanoma; 14.1 µM with PC-3 prostate; 18.6 µM in the test with HOP-92 NSCLC. Moreover, the GI50 with K-562 leukemia was 0.117 µM; in the test with HCT-15 colon it was 8.09 µM; in the test on KM12 colon, under 0.0248 µM; in the test with MDA-MB-231 breast, 29.6 µM. The TGI was over 100 µM in the test on SK-OV-3 ovarian; over 100 µM in the test with MCF7 breast; over 100 µM with HCT-116 colon; over 100 µM in the test on UACC-257 melanoma; 56.8 µM in the test on PC-3 prostate; 71.2 µM in the test with HOP-92 NSCLC. Besides, the TGI in the test with K-562 leukemia is over 100 µM; with HCT-15 colon, over 100 µM; in the test on KM12 colon, over 66.8 µM; in the test with MDA-MB-231 breast it was over 100 µM.
Consider `O=C1c2cccc3c(N4CCN(c5ccc6c7c(cccc57)C(=O)N(CCN5CCNCC5)C6=O)CC4)ccc(c23)C(=O)N1CCN1CCNCC1`, for which the GI50 is 25.7 µM in the test with SK-OV-3 ovarian; 11.2 µM in the test with MCF7 breast; 3.8 µM in the test on HCT-116 colon; 19.5 µM in the test with UACC-257 melanoma; 13.5 µM in the test with PC-3 prostate; 7.31 µM in the test on HOP-92 NSCLC. In addition, the GI50 in the test with K-562 leukemia is 2.78 µM; in the test on HCT-15 colon, 11.3 µM; in the test with KM12 colon, 12 µM; in the test with MDA-MB-231 breast, 10.4 µM. For the same molecule, the TGI is 82.9 µM in the test with SK-OV-3 ovarian; 41.1 µM with MCF7 breast; 42.9 µM in the test on HCT-116 colon; 37.9 µM in the test on UACC-257 melanoma; 32.4 µM in the test on PC-3 prostate; 29 µM in the test on HOP-92 NSCLC. Further, the TGI in the test with K-562 leukemia stood at 8.29 µM; in the test on HCT-15 colon, 31.3 µM; in the test with KM12 colon, 30.5 µM; with MDA-MB-231 breast it was 25.1 µM.
In the case of `NC(=O)c1c(OCc2c(F)cc(Br)cc2F)nsc1NC(=O)NCCCCN1CCCC1`, the GI50 in the test with SK-OV-3 ovarian is over 10 µM; in the test with MCF7 breast, 1.99 µM; in the test on HCT-116 colon it was 2.22 µM; with UACC-257 melanoma, 1.85 µM; in the test on PC-3 prostate, 3.14 µM; in the test on HOP-92 NSCLC, 0.323 µM. The GI50 with K-562 leukemia was 1.44 µM; in the test on HCT-15 colon, 2.85 µM; in the test with KM12 colon, 2.73 µM; with MDA-MB-231 breast, 1.55 µM. For the same molecule, the TGI in the test on SK-OV-3 ovarian was over 10 µM; in the test on MCF7 breast it was over 10 µM; with HCT-116 colon, 8.41 µM; in the test on UACC-257 melanoma, 3.94 µM; in the test on PC-3 prostate, over 10 µM; in the test with HOP-92 NSCLC it was over 10 µM. For the same molecule, the TGI is 5.91 µM with K-562 leukemia, over 10 µM with HCT-15 colon, over 10 µM with KM12 colon and 5.02 µM with MDA-MB-231 breast.
As for `CS(=O)(=O)c1ccc(C(F)(F)F)cc1NC(=O)Nc1cnc(Oc2ccc(-c3cc(Cl)cnc3N)cc2)nc1`, the GI50 with SK-OV-3 ovarian was 3.31 µM; with MCF7 breast, 2.18 µM; with HCT-116 colon it was 2.17 µM; with UACC-257 melanoma it was 3.07 µM; with PC-3 prostate it was 2.05 µM; in the test with HOP-92 NSCLC, 1.75 µM. In addition, the GI50 with K-562 leukemia is 2.23 µM; with HCT-15 colon, 2.74 µM; in the test on MDA-MB-231 breast, 1.72 µM. In addition, the TGI was 18 µM with SK-OV-3 ovarian; 7.35 µM with MCF7 breast; 4.82 µM with HCT-116 colon; 11.5 µM in the test with UACC-257 melanoma; 6.23 µM with PC-3 prostate; 5.12 µM with HOP-92 NSCLC. The TGI in the test on K-562 leukemia amounted to 5.51 µM; with HCT-15 colon, 13.4 µM; in the test with KM12 colon, 3.6 µM; in the test on MDA-MB-231 breast, 3.79 µM.
As for `NC(C(=O)O)C(N)C(=O)O` (stereo not drawn), the TGI with SK-OV-3 ovarian, in the test with MCF7 breast, with HCT-116 colon, in the test on UACC-257 melanoma, in the test with PC-3 prostate and with HOP-92 NSCLC was over 100 µM each time. Moreover, the TGI in the test on K-562 leukemia, in the test with HCT-15 colon, in the test with KM12 colon and with MDA-MB-231 breast was over 100 µM throughout.
